Marks after values point to notes of the source that are not given here.
Key:
[1] = test system: Pseudomonas aeruginosa PA14; test: Pulmonary Pseudomonas aeruginosa infection in immunosuppressive mice: lung bacterial load; assay type: in vivo; details: for LOG10 of Bacterial load: lung tissue 24 h after infection, immunosuppressed CD-1 mice, ip at 2 h, 4 h, 6 h, 8 h
Procedure: Pseudomonas aeruginosa PA14.
(§1) 46 female CD-1 (ICR) mice, supplied by Beijing Vital River Laboratory Animal Technology Co., Ltd., body weight of 23-27 g, 7 weeks old.
46 immunosuppressive mice were formed by intraperitoneal injection of cyclophosphamide 150 mg/kg on day 1 and day 4.
Seven groups were set up, including high, medium and low dose groups of compound represented by formula (I), high and medium-dose groups of compound I-g, aztreonam group and model group; there were 6 animals in each group, the other 4 animals were subjected to pulmonary infection for 2 h, and the lung tissues were removed to count the bacterial load. See the table below for specific grouping.
Mice were injected intratracheally with 50 μL of bacterial fluid (2×10^3 CFU). Four model mice were sacrificed 2 h after infection.
2 h after infection, the mice were injected intraperitoneally once at 2 h, 4 h, 6 h and 8 h according to the groups, for a total of 4 times.
24 h after infection, the mice in each group were sacrificed by cervical dislocation, and the lung and kidney tissues were removed aseptically, then placed into sterilized homogenate tube, weighed, added with proper amount of normal saline (NS), and homogenized by a homogenizer for 1 min; the lung tissues in model group were diluted 10^4, 10^5, and 10^6-fold, the lung tissues in each administration group were diluted 10 and 100-fold, the kidney tissues in model group were diluted 10^2, 10^3, and 10^4-fold, and the lung tissues in each administration group were diluted 10-fold; the serial diluents were plated onto TSA plates with a spiral coater, and incubated overnight at 37° C. to determine CFU counts with a colony counter.
(§2) CFU scatter plots of lung tissue were made using Graphpad Prism mapping software. The average CFU and body weight were calculated by SPSS 19.0 software, and the differences between groups were analyzed by variance analysis.
Mice were injected intraperitoneally with compounds of formula (I), compound I-g and aztreonam at 2 h, 4 h, 6 h and 8 h after infection; animals were sacrificed at 24 h, lung tissues were removed aseptically, immersed in normal saline (NS), homogenized, diluted appropriately, and then 50 μL of diluents were evenly plated onto TSA plates; the plates were incubated overnight in a 37° C. incubator to count the number of colonies, which was converted to CFU per milliliter by a dilution ratio, and logarithmic value of the bacterial load was calculated of base 10, and the mean and standard deviation were compared in each group.

[2] = Animal body weight in the in vivo protection test (pulmonary infection in mice); details: for Weight on day 1 / Weight on day 4 / Weight on day 5: ip
Procedure: as §1
The mice were weighed each day after the start of the test and body weight changes were recorded.
as §2

SMILES	LOG10 of Bacterial load ([1]; total dose 400 mg/kg day)	Weight on day 1 ([2]; 400 mg/kg day group)	Weight on day 4 ([2]; 400 mg/kg day group)	Weight on day 5 ([2]; 400 mg/kg day group)	Elimination of the bacteria infected on the lung (in words) ([1]; at the lowest dose)	Elimination of bacterial load in lung tissue (in words) ([1]; high, middle and low-dose groups, 24 h after infection)	LOG10 of Bacterial load ([1]; total dose 60 mg/kg day)	LOG10 of Bacterial load ([1]; total dose 120 mg/kg day)	LOG10 of Bacterial load ([1]; total dose 200 mg/kg day)	Weight on day 1 ([2]; 60 mg/kg day group)	Weight on day 4 ([2]; 60 mg/kg day group)	Weight on day 5 ([2]; 60 mg/kg day group)	Weight on day 1 ([2]; 120 mg/kg day group)	Weight on day 4 ([2]; 120 mg/kg day group)	Weight on day 5 ([2]; 120 mg/kg day group)	Weight on day 1 ([2]; 200 mg/kg day group)	Weight on day 4 ([2]; 200 mg/kg day group)	Weight on day 5 ([2]; 200 mg/kg day group)	Safety conclusion from body weight (in words) ([2]; administration group)
C[C@H]1[C@H](NC(=O)/C(=N\OC(C)(C)C(=O)O)c2csc(N)n2)C(=O)N1S(=O)(=O)O [Aztreonam, aztreonam, reference compound]	1.62 ± 2.22	27.16 ± 1.74 g	27.80 ± 2.37 g	28.02 ± 1.08 g															
CC1(C)[C@H](NC(=O)/C(=N\O[C@@H](COc2ccc3c(c2)CN(C(=N)N(CCCN)CCCN)C3)C(=O)O)c2csc(N)n2)C(=O)N1OS(=O)(=O)O [Compound represented by formula (I)]					completely eliminated	completely eliminated	0**	0**	0**	26.14 ± 1.21 g	27.76 ± 0.43 g	26.77 ± 1.02 g	26.47 ± 1.65 g	28.33 ± 1.14 g	28.01 ± 1.35 g	26.91 ± 1.03 g	28.03 ± 2.15 g	25.40 ± 2.75 g	safe
CC1(C)[C@H](NC(=O)/C(=N\O[C@@H](COc2ccc(C(=N)N[C@@H]3CCCNC3)cc2)C(=O)O)c2csc(N)n2)C(=O)N1OS(=O)(=O)O [I-g, reference compound]								1.58 ± 2.45	0**				27.02 ± 1.12 g	28.21 ± 1.16 g	27.20 ± 0.96 g	27.25 ± 1.14 g	28.39 ± 1.60 g	26.43 ± 1.06 g	
